Biological target: USP19 (Homo sapiens (Human), UniProt O94966)
Assay: USP19 fluorescence polarization (FP) homogeneous assay with Ubiquitin-Lys-TAMRA substrate
Format: biochemical
Conditions: full-length USP19 2.5 nM, Ub substrate 500 nM, 30 min pre-incubation at rt; average of at least two duplicate experiments
Experimental: Unless otherwise stated, all other reagents were purchased from Sigma. Enzymatic reactions were conducted in black flat bottom polystyrene 384-well plates (Nunc) and 30 μL total volume. […] Inhibitors were stored as 10 mM DMSO stocks in an inert environment (low humidity, dark, low oxygen, room temperature) using the Storage Pod System and serial dilutions were prepared in buffer just prior to the assay (from 200 μM to 2 pM, 8-18 data point curve). Following incubation at rt for 30 min, the enzymatic reactions were initiated by dispensing the Ub substrate (500 nM, 10 μL). FP was measured every 15 min over a period of 90 min (within the linear range of the assay) using a Synergy 4 plate reader (BioTek) exciting at 530 nm and measuring the amount of parallel and perpendicular light at 575 nm. The FP signal was subsequently normalized to the no compound control.

USP19, sequence (O94966 whole entry): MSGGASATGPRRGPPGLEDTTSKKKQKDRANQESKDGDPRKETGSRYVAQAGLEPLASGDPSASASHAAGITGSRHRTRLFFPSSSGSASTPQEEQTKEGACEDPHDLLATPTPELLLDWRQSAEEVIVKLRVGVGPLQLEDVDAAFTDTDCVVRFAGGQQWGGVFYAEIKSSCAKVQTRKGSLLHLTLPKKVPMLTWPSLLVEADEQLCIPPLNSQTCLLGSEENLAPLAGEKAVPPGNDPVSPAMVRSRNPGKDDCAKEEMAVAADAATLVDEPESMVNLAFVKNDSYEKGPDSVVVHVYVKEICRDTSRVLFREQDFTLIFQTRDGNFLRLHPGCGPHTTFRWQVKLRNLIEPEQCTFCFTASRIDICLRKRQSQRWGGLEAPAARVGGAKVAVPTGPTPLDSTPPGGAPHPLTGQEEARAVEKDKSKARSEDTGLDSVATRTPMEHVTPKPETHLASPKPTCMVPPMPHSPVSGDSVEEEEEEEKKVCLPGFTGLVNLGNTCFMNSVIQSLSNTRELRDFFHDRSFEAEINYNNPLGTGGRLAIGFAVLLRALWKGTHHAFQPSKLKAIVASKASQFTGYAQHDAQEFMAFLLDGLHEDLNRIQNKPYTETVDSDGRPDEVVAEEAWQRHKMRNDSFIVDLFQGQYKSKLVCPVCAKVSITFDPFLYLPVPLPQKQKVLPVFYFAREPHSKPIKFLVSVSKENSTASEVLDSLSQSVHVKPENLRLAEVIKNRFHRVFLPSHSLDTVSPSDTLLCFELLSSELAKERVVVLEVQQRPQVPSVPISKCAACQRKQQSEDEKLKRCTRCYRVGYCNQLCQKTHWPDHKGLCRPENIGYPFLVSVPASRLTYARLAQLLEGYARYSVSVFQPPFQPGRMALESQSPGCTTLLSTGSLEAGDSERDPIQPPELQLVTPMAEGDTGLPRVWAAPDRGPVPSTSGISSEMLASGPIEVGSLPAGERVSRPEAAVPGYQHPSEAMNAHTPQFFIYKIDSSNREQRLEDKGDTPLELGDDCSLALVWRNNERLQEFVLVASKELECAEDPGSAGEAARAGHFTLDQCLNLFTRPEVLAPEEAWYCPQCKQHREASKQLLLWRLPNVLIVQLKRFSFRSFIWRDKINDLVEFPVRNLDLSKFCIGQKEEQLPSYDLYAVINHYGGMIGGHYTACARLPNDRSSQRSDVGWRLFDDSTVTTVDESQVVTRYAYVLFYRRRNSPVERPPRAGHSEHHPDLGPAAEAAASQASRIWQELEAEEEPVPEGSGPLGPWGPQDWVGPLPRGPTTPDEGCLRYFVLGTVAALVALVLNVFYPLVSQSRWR

Row | SMILES | IC50 [µM]
1 | CC(CC(=O)N1CCC(O)(CN2CC(Cc3ccccc3)CC2=O)C(C)(C)C1)c1ccccc1 (centres unmarked) [Example 44, 4-Benzyl-1-((4-hydroxy-3,3-dimethyl-1-(3-phenylbutanoyl)piperidin-4-yl)methyl)pyrrolidin-2-one] | 50 to 250
2 | C[C@H](CC1CCCCC1)C(=O)N1CC[C@](O)(Cn2cc(N=S(C)(C)=O)c(-c3ccccc3F)cc2=O)C(C)(C)C1 [Example 65, 1-(((R)-1-((R)-3-Cyclohexyl-2-methylpropanoyl)-4-hydroxy-3,3-dimethylpiperidin-4-yl)methyl)-5-((dimethyl(oxo)-λ^6-sulfaneylidene)amino)-4-(2-fluorophenyl)pyridin-2(1H)-one] | 50 to 250
3 | C[C@H](CC1CCCCC1)C(=O)N1CC[C@@](O)(Cn2cc(N=S(C)(C)=O)c(-c3ccccc3F)cc2=O)C(C)(C)C1 [Example 66, 1-(((S)-1-((R)-3-Cyclohexyl-2-methylpropanoyl)-4-hydroxy-3,3-dimethylpiperidin-4-yl)methyl)-5-((dimethyl(oxo)-λ^6-sulfaneylidene)amino)-4-(2-fluorophenyl)pyridin-2(1H)-one] | 0.5 to 5

Now from value to compound:

Row | IC50 [µM] | SMILES
4 | 0.5 to 5 | O=C1COCCN1CC1(O)CCN(C(=O)N2CCOC[C@H]2c2ccccc2)CC12CCCC2 (stereo partly drawn) [Example 117, 4-((10-Hydroxy-7-((R)-3-phenylmorpholine-4-carbonyl)-7-azaspiro[4.5]decan-10-yl)methyl)morpholin-3-one]
5 | 5 to 50 | C[C@H](CC(F)(F)F)C(=O)N1CCC(O)(Cn2ccc3ccc(F)cc3c2=O)C2(CCCC2)C1 (stereo partly drawn) [Example 135, 7-Fluoro-2-((10-hydroxy-7-((R)-4,4,4-trifluoro-2-methylbutanoyl)-7-azaspiro[4.5]decan-10-yl)methyl)isoquinolin-1(2H)-one]
